From paper PMC12147714 (FEMS Microbiology Letters, 2025)
pIC50: −log10 of the molar value.

Assays:
[1] = tested on: PAO1 TnoprD producing IMP-1; assay: MIC and checkerboard by broth microdilution, recombinant strain; assay type: cell-based, Pseudomonas aeruginosa; conditions: IMP-1 TnoprD; antibiotic alone
Experimental: (§1) The fractional inhibitory concentration index (FICI) was calculated and interpreted as follows: the MIC of drug A in combination/the MIC of drug A alone + the MIC of drug B in combination/the MIC drug B alone. FICI ≤ 0.5 = synergy; 0.5 < FICI ≤ 1 = additive; FICI 1 < FICI < 2 = indifference, and FICI ≥ 2 = antagonism. All susceptibility testing/checkerboard assays were performed in triplicate.

[2] = tested on: PAO1 TnoprD producing NDM-1; assay: as above; assay type: cell-based, Pseudomonas aeruginosa; conditions: NDM-1 TnoprD; antibiotic alone
Experimental: as §1

[3] = tested on: PAO1 TnoprD producing VIM-1; assay: as above; assay type: cell-based, Pseudomonas aeruginosa; conditions: VIM-1 TnoprD; antibiotic alone
Experimental: as §1

PAO1 producing IMP-10 = assay: as above; assay type: cell-based, Pseudomonas aeruginosa; conditions: antibiotic alone
Experimental: as §1

PAO1 producing NDM-1 = assay: as above; assay type: cell-based, Pseudomonas aeruginosa; conditions: antibiotic alone
Experimental: as §1

[4] = tested on: PAO1 TnoprD producing IMP-10; assay: as above; assay type: cell-based, Pseudomonas aeruginosa; conditions: IMP-10 TnoprD; antibiotic alone
Excerpt: (§2) Pseudomonas aeruginosa isolate, PAO1, was used alongside its isogenic counterpart, PAO1 TnoprD, which lacks a functional OprD porin (Held et al. [2012]). β-lactamases, blaIMP-1, blaIMP-10, blaIMP-13, blaNDM-1, blaSPM-1, blaVIM-1, blaVIM-2, and blaKPC-2, had previously been cloned into the pUCP24 shuttle vector (Bouvier et al. [2025]), and were transformed by electroporation into both PAO1 and PAO1 TnoprD.
as §1, with “. MICs of DMSA, CAZ, FEP and checkerboards for the combinations, CAZ/DMSA and FEP/DMSA, were performed for all clinical isolates. All susceptibility testing results were interpreted according to CLSI guidelines (CLSI [2023]). The” for “The”

[5] = tested on: PAO1 TnoprD producing IMP-13; assay: as above; assay type: cell-based, Pseudomonas aeruginosa; conditions: IMP-13 TnoprD; antibiotic alone
Excerpt: as §2
as §1, with “. MICs of DMSA, CAZ, FEP and checkerboards for the combinations, CAZ/DMSA and FEP/DMSA, were performed for all clinical isolates. All susceptibility testing results were interpreted according to CLSI guidelines (CLSI [2023]). The” for “The”

[6] = tested on: PAO1 TnoprD producing SPM-1; assay: as above; assay type: cell-based, Pseudomonas aeruginosa; conditions: SPM-1 TnoprD; antibiotic alone
Excerpt: as §2
as §1, with “. MICs of DMSA, CAZ, FEP and checkerboards for the combinations, CAZ/DMSA and FEP/DMSA, were performed for all clinical isolates. All susceptibility testing results were interpreted according to CLSI guidelines (CLSI [2023]). The” for “The”

[7] = tested on: PAO1 TnoprD producing VIM-2; assay: as above; assay type: cell-based, Pseudomonas aeruginosa; conditions: VIM-2 TnoprD; antibiotic alone
Excerpt: as §2
as §1, with “. MICs of DMSA, CAZ, FEP and checkerboards for the combinations, CAZ/DMSA and FEP/DMSA, were performed for all clinical isolates. All susceptibility testing results were interpreted according to CLSI guidelines (CLSI [2023]). The” for “The”

PAO1 producing IMP-13 = assay: as above; assay type: cell-based, Pseudomonas aeruginosa; conditions: antibiotic alone
Excerpt: as §2
as §1, with “. MICs of DMSA, CAZ, FEP and checkerboards for the combinations, CAZ/DMSA and FEP/DMSA, were performed for all clinical isolates. All susceptibility testing results were interpreted according to CLSI guidelines (CLSI [2023]). The” for “The”

PAO1 producing SPM-1 = assay: as above; assay type: cell-based, Pseudomonas aeruginosa; conditions: antibiotic alone
Excerpt: as §2
as §1, with “. MICs of DMSA, CAZ, FEP and checkerboards for the combinations, CAZ/DMSA and FEP/DMSA, were performed for all clinical isolates. All susceptibility testing results were interpreted according to CLSI guidelines (CLSI [2023]). The” for “The”

PAO1 producing VIM-1 = assay: as above; assay type: cell-based, Pseudomonas aeruginosa; conditions: antibiotic alone
Excerpt: as §2
as §1, with “. MICs of DMSA, CAZ, FEP and checkerboards for the combinations, CAZ/DMSA and FEP/DMSA, were performed for all clinical isolates. All susceptibility testing results were interpreted according to CLSI guidelines (CLSI [2023]). The” for “The”

PAO1 producing VIM-2 = assay: as above; assay type: cell-based, Pseudomonas aeruginosa; conditions: antibiotic alone
Excerpt: as §2
as §1, with “. MICs of DMSA, CAZ, FEP and checkerboards for the combinations, CAZ/DMSA and FEP/DMSA, were performed for all clinical isolates. All susceptibility testing results were interpreted according to CLSI guidelines (CLSI [2023]). The” for “The”

[8] = design: method as in van Eijkeren et al. 2016; conditions: 30 mg/kg dose; ref van Eijkeren et al. 2016; cited from earlier work
MBL-producing E. coli = conditions: high concentrations, ref Cheminet et al. 2020, cited from earlier work
[9] = tested on: MBL-producers in isogenic strains of P. aeruginosa; design: method as in Bouvier et al. 2025; conditions: ref Bouvier et al. 2025, cited from earlier work
IMP-10 = IMP-10 (Serratia marcescens, UniProt P52699, V49F); assay: IC50, inhibition of cephalothin hydrolysis by crude extract; conditions: IMP-10; 100 μM cephalothin, pH 7.0
IMP-13 = IMP-13 (Pseudomonas aeruginosa, UniProt Q7WYA8); assay: as above; conditions: IMP-13; 100 μM cephalothin, pH 7.0
NDM-1 = NDM-1 (Klebsiella pneumoniae, UniProt C7C422); assay: as above; conditions: 100 μM cephalothin, pH 7.0
SPM-1 = SPM-1 (Pseudomonas aeruginosa, UniProt Q8G9Q0); assay: as above; conditions: SPM-1; 100 μM cephalothin, pH 7.0
VIM-1 = VIM-1 (Pseudomonas aeruginosa, UniProt A0A0F7KYQ8); assay: as above; conditions: VIM-1; 100 μM cephalothin, pH 7.0
VIM-2 = VIM-2 (Escherichia coli, UniProt Q5U7L7); assay: as above; conditions: VIM-2; 100 μM cephalothin, pH 7.0

Sequence of SPM-1 (Q8G9Q0 entry or part of it): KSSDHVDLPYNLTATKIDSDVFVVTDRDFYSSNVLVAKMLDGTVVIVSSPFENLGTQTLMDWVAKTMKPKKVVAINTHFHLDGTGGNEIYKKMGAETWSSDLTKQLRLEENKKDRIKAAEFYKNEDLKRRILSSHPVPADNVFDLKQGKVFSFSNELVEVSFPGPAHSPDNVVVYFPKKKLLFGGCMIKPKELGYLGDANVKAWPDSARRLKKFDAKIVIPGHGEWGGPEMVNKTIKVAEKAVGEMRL
Sequence of IMP-10 (P52699 19-246 V49F): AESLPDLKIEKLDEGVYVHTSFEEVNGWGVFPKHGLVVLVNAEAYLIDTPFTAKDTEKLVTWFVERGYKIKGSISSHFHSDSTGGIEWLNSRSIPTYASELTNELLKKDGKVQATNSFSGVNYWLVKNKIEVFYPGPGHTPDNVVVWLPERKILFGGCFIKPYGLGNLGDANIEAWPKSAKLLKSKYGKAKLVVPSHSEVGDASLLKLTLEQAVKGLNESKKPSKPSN
Sequence of NDM-1 (C7C422 29-270 limits assumed): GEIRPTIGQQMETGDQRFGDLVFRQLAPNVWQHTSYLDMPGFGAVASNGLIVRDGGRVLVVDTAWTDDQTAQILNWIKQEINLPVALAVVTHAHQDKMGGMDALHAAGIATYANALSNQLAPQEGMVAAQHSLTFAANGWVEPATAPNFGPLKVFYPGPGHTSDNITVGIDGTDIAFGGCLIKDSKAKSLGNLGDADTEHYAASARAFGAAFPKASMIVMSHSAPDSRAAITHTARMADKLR
Sequence of IMP-13 (Q7WYA8 21-246): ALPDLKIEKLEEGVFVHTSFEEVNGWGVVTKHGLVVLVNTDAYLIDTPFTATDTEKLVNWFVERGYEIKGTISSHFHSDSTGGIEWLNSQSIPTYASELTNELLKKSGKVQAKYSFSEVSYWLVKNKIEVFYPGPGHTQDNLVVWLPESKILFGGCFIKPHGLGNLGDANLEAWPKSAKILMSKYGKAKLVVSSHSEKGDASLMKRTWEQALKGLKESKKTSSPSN

CC(C)(O/N=C(\C(=O)N[C@@H]1C(=O)N2C(C(=O)[O-])=C(C[n+]3ccccc3)CS[C@H]12)c1csc(N)n1)C(=O)O [CAZ, ceftazidime]
MIC [1]: 1020 µg/mL | MIC [2]: 4100 µg/mL | MIC [3]: 2050 µg/mL | MIC (PAO1 producing IMP-10): 2050 µg/mL | MIC (PAO1 producing NDM-1): 4100 µg/mL | MIC [4]: 2050 µg/mL | MIC [5]: 64 µg/mL | MIC [6]: 512 µg/mL | MIC [7]: 8 µg/mL | MIC (PAO1 producing IMP-13): 64 µg/mL | MIC (PAO1 producing SPM-1): 512 µg/mL | MIC (PAO1 producing VIM-1): 2050 µg/mL | MIC (PAO1 producing VIM-2): 8 µg/mL

O=C(O)[C@@H](S)[C@@H](S)C(=O)O [DMSA, meso-dimercaptosuccinic acid]
tolerability [8]: well tolerated | efficacy in mouse peritonitis model (MBL-producing E. coli; MBL-producing E. coli): effective | tolerability in mouse peritonitis model (MBL-producing E. coli): well-tolerated | effect on carbapenem (IPM and MEM) MICs ([9]; DMSA at 3 mM): significantly reduce | type of interaction with carbapenems [9]: additive | pIC50 (IMP-10): 4.30 | pIC50 (IMP-13): 3.46 | pIC50 (NDM-1): < 3.00 | pIC50 (SPM-1): < 3.00 | pIC50 (VIM-1): < 3.00 | pIC50 (VIM-2): < 3.00
